Test system: MV-4-11 cells
Assay: Gene expression microarray analysis (Affymetrix PrimeView) and GSEA
Format: cell-based, human
Design: RFU PODN (11730768_x_at) / Fold change /veh PODN (11730768_x_at) / RFU LINC00158 (11744669_a_at) / Fold change /veh LINC00158 (11744669_a_at) / RFU DUSP10 (11751237_a_at) / Fold change /veh DUSP10 (11751237_a_at) / RFU ID3 (11757404_x_at) / Fold change /veh ID3 (11757404_x_at) / RFU PLEKHG5 (11737974_s_at) / Fold change /veh PLEKHG5 (11737974_s_at) / RFU LRRC4B (11730491_at) / Fold change /veh LRRC4B (11730491_at) / RFU GIMAP4 (11747438_a_at) / Fold change /veh GIMAP4 (11747438_a_at) / RFU KRT8 (11758183_x_at) / Fold change /veh KRT8 (11758183_x_at) / RFU CNN1 (11734310_a_at) / Fold change /veh CNN1 (11734310_a_at) / RFU VPS37D (11726825_at) / Fold change /veh VPS37D (11726825_at) / RFU C10orf10 (11716522_x_at) / Fold change /veh C10orf10 (11716522_x_at) / RFU KIR2DL2 /// KIR2DL4 /// KIR2DL5A /// KIR2DL5B /// KIR2DS1 /// KIR2DS2 /// KIR2DS3 /// KIR2DS4 /// KIR3DL3 /// KIR3DL3 /// KIR3DS1 (11738374_at) / Fold change /veh KIR2DL2 /// KIR2DL4 /// KIR2DL5A /// KIR2DL5B /// KIR2DS1 /// KIR2DS2 /// KIR2DS3 /// KIR2DS4 /// KIR3DL3 /// KIR3DL3 /// KIR3DS1 (11738374_at) / RFU C1QL1 (11718748_at) / Fold change /veh C1QL1 (11718748_at) / RFU TMPRSS4 (11747572_a_at) / Fold change /veh TMPRSS4 (11747572_a_at) / RFU HAMP (11756126_x_at) / Fold change /veh HAMP (11756126_x_at) / RFU RNFT2 (11725882_a_at) / Fold change /veh RNFT2 (11725882_a_at) / RFU NR4A2 (11747474_a_at) / Fold change /veh NR4A2 (11747474_a_at) / RFU ABCC12 (11746883_a_at) / Fold change /veh ABCC12 (11746883_a_at) / RFU TMEM136 (11760407_x_at) / Fold change /veh TMEM136 (11760407_x_at) / RFU CLDN22 /// WWC2 (11732394_at) / Fold change /veh CLDN22 /// WWC2 (11732394_at) / RFU HLA-DPB1 (11760878_x_at) / Fold change /veh HLA-DPB1 (11760878_x_at) / RFU SPINT1 (11716480_a_at) / Fold change /veh SPINT1 (11716480_a_at) / RFU GAP43 (11754022_s_at) / Fold change /veh GAP43 (11754022_s_at) / RFU A4GNT (11735810_at) / Fold change /veh A4GNT (11735810_at) / RFU PRB3 (11715151_x_at) / Fold change /veh PRB3 (11715151_x_at) / RFU TUBB4B (11761932_at) / Fold change /veh TUBB4B (11761932_at) / RFU CAPN14 (11732068_a_at) / Fold change /veh CAPN14 (11732068_a_at) / RFU TMCC2 (11721928_a_at) / Fold change /veh TMCC2 (11721928_a_at) / RFU IRGQ (11745062_a_at) / Fold change /veh IRGQ (11745062_a_at) / RFU FAM174B (11720279_a_at) / Fold change /veh FAM174B (11720279_a_at) / RFU TMPRSS4 (11748680_a_at) / Fold change /veh TMPRSS4 (11748680_a_at) / RFU FAM212B (11763350_a_at) / Fold change /veh FAM212B (11763350_a_at) / RFU PLEKHG5 (11743358_a_at) / Fold change /veh PLEKHG5 (11743358_a_at) / RFU ZSCAN30 (11745921_a_at) / Fold change /veh ZSCAN30 (11745921_a_at) / RFU CMKLR1 (11741424_a_at) / Fold change /veh CMKLR1 (11741424_a_at) / RFU LOC101060620 /// MAPK8IP1 (11723275_at) / Fold change /veh LOC101060620 /// MAPK8IP1 (11723275_at) / RFU SPTSSB (11747773_x_at) / Fold change /veh SPTSSB (11747773_x_at) / RFU PRSS12 (11739890_at) / Fold change /veh PRSS12 (11739890_at) / RFU BIN1 (11741810_x_at) / Fold change /veh BIN1 (11741810_x_at) / RFU WNT11 (11732464_a_at) / Fold change /veh WNT11 (11732464_a_at) / RFU C10orf10 (11716521_a_at) / Fold change /veh C10orf10 (11716521_a_at) / RFU C5orf56 (11738089_at) / Fold change /veh C5orf56 (11738089_at) / RFU CYB561 (11721691_x_at) / Fold change /veh CYB561 (11721691_x_at) / RFU ANKRD19P (11752326_a_at) / Fold change /veh ANKRD19P (11752326_a_at) / RFU OR2T12 /// OR2T33 /// OR2T8 (11738714_s_at) / Fold change /veh OR2T12 /// OR2T33 /// OR2T8 (11738714_s_at) / RFU VCAN (11748164_a_at) / Fold change /veh VCAN (11748164_a_at) / RFU JSRP1 (11732532_at) / Fold change /veh JSRP1 (11732532_at) / RFU KRTAP10-11 (11738290_x_at) / Fold change /veh KRTAP10-11 (11738290_x_at) / RFU MYO3A (11730013_a_at) / Fold change /veh MYO3A (11730013_a_at) / RFU EBF3 (11725865_a_at) / Fold change /veh EBF3 (11725865_a_at) / RFU CAMK2N1 (11719241_x_at) / Fold change /veh CAMK2N1 (11719241_x_at) / RFU C5orf56 (11738088_a_at) / Fold change /veh C5orf56 (11738088_a_at) / RFU OLFML3 (11715873_a_at) / Fold change /veh OLFML3 (11715873_a_at) / RFU LOC100653217 /// NTM (11731650_a_at) / Fold change /veh LOC100653217 /// NTM (11731650_a_at) / RFU MAPK11 (11762145_a_at) / Fold change /veh MAPK11 (11762145_a_at) / RFU FIZ1 (11724087_x_at) / Fold change /veh FIZ1 (11724087_x_at) / RFU OASL (11726364_x_at) / Fold change /veh OASL (11726364_x_at) / RFU SOX15 (11748057_x_at) / Fold change /veh SOX15 (11748057_x_at) / RFU CD79A (11719716_a_at) / Fold change /veh CD79A (11719716_a_at) / RFU HIST1H1D (11736915_at) / Fold change /veh HIST1H1D (11736915_at) / RFU CASKIN2 (11723855_a_at) / Fold change /veh CASKIN2 (11723855_a_at) / RFU LOC730098 (11760151_x_at) / Fold change /veh LOC730098 (11760151_x_at) / RFU OR4N2 (11742367_at) / Fold change /veh OR4N2 (11742367_at) / RFU PRRT2 (11749266_a_at) / Fold change /veh PRRT2 (11749266_a_at) / RFU SNX32 (11753110_a_at) / Fold change /veh SNX32 (11753110_a_at) / RFU CDHR5 (11726645_a_at) / Fold change /veh CDHR5 (11726645_a_at) / RFU RCAN1 (11760418_a_at) / Fold change /veh RCAN1 (11760418_a_at) / RFU FAM167A (11723789_a_at) / Fold change /veh FAM167A (11723789_a_at) / RFU FAM26E (11764081_at) / Fold change /veh FAM26E (11764081_at) / RFU ISYNA1 (11749810_s_at) / Fold change /veh ISYNA1 (11749810_s_at) / RFU ACY1 (11761880_at) / Fold change /veh ACY1 (11761880_at) / RFU 11764098_at / Fold change /veh 11764098_at / RFU SAMD14 (11745864_x_at) / Fold change /veh SAMD14 (11745864_x_at) / RFU NPB (11741838_a_at) / Fold change /veh NPB (11741838_a_at) / RFU TMPRSS6 (11731388_a_at) / Fold change /veh TMPRSS6 (11731388_a_at) / RFU KRTAP10-2 (11738614_at) / Fold change /veh KRTAP10-2 (11738614_at) / RFU ARHGAP8 /// PRR5-ARHGAP8 (11727945_x_at) / Fold change /veh ARHGAP8 /// PRR5-ARHGAP8 (11727945_x_at) / RFU KRTAP5-7 /// NADSYN1 (11734609_at) / Fold change /veh KRTAP5-7 /// NADSYN1 (11734609_at) / RFU RASL12 (11751679_a_at) / Fold change /veh RASL12 (11751679_a_at) / RFU CDKN2B (11736163_a_at) / Fold change /veh CDKN2B (11736163_a_at) / RFU PRF1 (11729649_at) / Fold change /veh PRF1 (11729649_at) / RFU, ZNF638 /// ZNF638-IT1 / Fold change vs veh, ZNF638 /// ZNF638-IT1 / RFU, PANK3 / Fold change vs veh, PANK3 / RFU, SH3YL1 / Fold change vs veh, SH3YL1 / RFU, ZEB2 / Fold change vs veh, ZEB2 / RFU, NRIP1 / Fold change vs veh, NRIP1 / RFU, PTTG1IP / Fold change vs veh, PTTG1IP / RFU, CAPN2 / Fold change vs veh, CAPN2 / RFU, MED14 / Fold change vs veh, MED14 / RFU, SNORA58 / Fold change vs veh, SNORA58 / RFU, C1orf63 / Fold change vs veh, C1orf63 / RFU, LRRFIP1 / Fold change vs veh, LRRFIP1 / RFU, NDUFAF7 / Fold change vs veh, NDUFAF7 / RFU, SLC12A2 / Fold change vs veh, SLC12A2 / RFU, IBTK / Fold change vs veh, IBTK / RFU, ESF1 / Fold change vs veh, ESF1 / Fold change vs veh, TMEM50B / RFU, TAOK1 / Fold change vs veh, TAOK1 / RFU, ACBD3 / Fold change vs veh, ACBD3 / RFU, TMA16 / Fold change vs veh, TMA16 / RFU, RWDD3 / Fold change vs veh, RWDD3 / RFU, BCAT1 / Fold change vs veh, BCAT1 / RFU, EDEM3 / Fold change vs veh, EDEM3 / RFU, TMEM33 / Fold change vs veh, TMEM33 / RFU, WDR75 / Fold change vs veh, WDR75 / RFU, AHCTF1 / Fold change vs veh, AHCTF1 / RFU, TFRC / Fold change vs veh, TFRC / RFU, ZDHHC17 / Fold change vs veh, ZDHHC17 / RFU, NOM1 / Fold change vs veh, NOM1 / RFU, ARL8B / Fold change vs veh, ARL8B / RFU, ZBTB11 / Fold change vs veh, ZBTB11 / RFU, TAMM41 / Fold change vs veh, TAMM41 / RFU, KIAA1704 /// LOC100996395 / Fold change vs veh, KIAA1704 /// LOC100996395 / RFU, ING1 / Fold change vs veh, ING1 / RFU, TRMT61B / Fold change vs veh, TRMT61B / RFU, FUBP3 / Fold change vs veh, FUBP3 / RFU, TP53 / Fold change vs veh, TP53 / RFU, TNKS2 / Fold change vs veh, TNKS2 / RFU, ZFP14 / Fold change vs veh, ZFP14 / RFU, ACTR2 / Fold change vs veh, ACTR2 / RFU, PPP3R1 / Fold change vs veh, PPP3R1 / RFU, PIK3R1 / Fold change vs veh, PIK3R1 / RFU, HNRNPA1 / Fold change vs veh, HNRNPA1 / RFU, RNF170 / Fold change vs veh, RNF170 / RFU, ZNF28 / Fold change vs veh, ZNF28 / RFU, RNGTT / Fold change vs veh, RNGTT / RFU, OGT / Fold change vs veh, OGT / RFU, BRD1 / Fold change vs veh, BRD1 / RFU, MARS / Fold change vs veh, MARS / RFU, ZNF655 / Fold change vs veh, ZNF655 / RFU, FAHD1 / Fold change vs veh, FAHD1 / RFU, BDP1 / Fold change vs veh, BDP1 / RFU, LRRCC1 / Fold change vs veh, LRRCC1 / RFU, ARID1A / Fold change vs veh, ARID1A / RFU, ZNF146 / Fold change vs veh, ZNF146 / RFU, ZNF330 / Fold change vs veh, ZNF330 / RFU, GPN3 / Fold change vs veh, GPN3 / RFU, C9orf123 / Fold change vs veh, C9orf123 / RFU, N4BP2L2 / Fold change vs veh, N4BP2L2 / RFU, ARFIP1 / Fold change vs veh, ARFIP1 / RFU, FAM179B / Fold change vs veh, FAM179B / RFU, BCL10 / Fold change vs veh, BCL10 / RFU, UHRF1BP1L / Fold change vs veh, UHRF1BP1L / RFU, BET1 / Fold change vs veh, BET1 / RFU, CNOT2 / Fold change vs veh, CNOT2 / RFU, ZNF268 / Fold change vs veh, ZNF268 / Fold change vs veh, ZNF507 / RFU, DGCR2 / Fold change vs veh, DGCR2 / RFU, WDSUB1 / Fold change vs veh, WDSUB1 / Fold change vs veh, HSP90B1 /// MIR3652 / RFU, ADSS / Fold change vs veh, ADSS / RFU, GK / Fold change vs veh, GK / RFU, ZNF148 / Fold change vs veh, ZNF148 / RFU, TAF9 / Fold change vs veh, TAF9 / RFU, SLC1A5 / Fold change vs veh, SLC1A5 / RFU, SLMO2 / Fold change vs veh, SLMO2 / RFU, ABCC4 / Fold change vs veh, ABCC4 / RFU, LOC101060439 /// RAP1B / Fold change vs veh, LOC101060439 /// RAP1B / RFU, RFX7 / Fold change vs veh, RFX7 / RFU, GTPBP10 / Fold change vs veh, GTPBP10 / RFU, CNEP1R1 / Fold change vs veh, CNEP1R1 / RFU, BIVM-ERCC5 /// ERCC5 / Fold change vs veh, BIVM-ERCC5 /// ERCC5 / RFU, ILF3 / Fold change vs veh, ILF3 / RFU 11762660_at / Fold change /veh 11762660_at / RFU VCAN (11757783_s_at) / Fold change /veh VCAN (11757783_s_at) / RFU DDX43 (11728927_at) / Fold change /veh DDX43 (11728927_at) / RFU KRT8 (11758188_x_at) / Fold change /veh KRT8 (11758188_x_at) / RFU NKD1 (11759106_at) / Fold change /veh NKD1 (11759106_at) / RFU SRD5A1 (11742802_a_at) / Fold change /veh SRD5A1 (11742802_a_at) / RFU TPSAB1 /// TPSB2 (11721975_s_at) / Fold change /veh TPSAB1 /// TPSB2 (11721975_s_at) / RFU GSTM3 (11746129_a_at) / Fold change /veh GSTM3 (11746129_a_at) / RFU IL23R (11737362_x_at) / Fold change /veh IL23R (11737362_x_at) / RFU TMEM51 (11727254_a_at) / Fold change /veh TMEM51 (11727254_a_at) / RFU PIWIL2 (11732686_x_at) / Fold change /veh PIWIL2 (11732686_x_at) / RFU ORM1 (11744905_x_at) / Fold change /veh ORM1 (11744905_x_at) / RFU CCDC152 (11743942_at) / Fold change /veh CCDC152 (11743942_at) / RFU ECM1 (11717891_a_at) / Fold change /veh ECM1 (11717891_a_at) / RFU IL23R (11748794_a_at) / Fold change /veh IL23R (11748794_a_at) / RFU TNFAIP8L3 (11732012_x_at) / Fold change /veh TNFAIP8L3 (11732012_x_at) / RFU MBOAT4 (11741988_at) / Fold change /veh MBOAT4 (11741988_at) / RFU 11764193_at / Fold change /veh 11764193_at / RFU TMEM53 (11763286_at) / Fold change /veh TMEM53 (11763286_at) / RFU MAGEB2 (11727129_at) / Fold change /veh MAGEB2 (11727129_at) / RFU TMEM200A (11744735_a_at) / Fold change /veh TMEM200A (11744735_a_at) / RFU CCDC152 (11751479_a_at) / Fold change /veh CCDC152 (11751479_a_at) / RFU FAM211A (11726209_a_at) / Fold change /veh FAM211A (11726209_a_at) / RFU RGS16 (11746705_a_at) / Fold change /veh RGS16 (11746705_a_at) / RFU VCAN (11755009_s_at) / Fold change /veh VCAN (11755009_s_at) / RFU RHOB (11743442_s_at) / Fold change /veh RHOB (11743442_s_at) / RFU RGS16 (11720943_a_at) / Fold change /veh RGS16 (11720943_a_at) / RFU RGS16 (11720944_at) / Fold change /veh RGS16 (11720944_at) / RFU, VPS4B / Fold change vs veh, VPS4B / RFU, CREB1 / Fold change vs veh, CREB1 / RFU, DNAJC13 / Fold change vs veh, DNAJC13 / RFU, GNAQ / Fold change vs veh, GNAQ / RFU, CDK5R1 / Fold change vs veh, CDK5R1 / RFU, ZRANB3 / Fold change vs veh, ZRANB3 / RFU, CUL4A / Fold change vs veh, CUL4A / RFU, CCNY / Fold change vs veh, CCNY / RFU, UFL1 / Fold change vs veh, UFL1 / RFU, COG3 / Fold change vs veh, COG3 / RFU, DIAPH2 / Fold change vs veh, DIAPH2 / RFU, SKA2 / Fold change vs veh, SKA2 / RFU, AFF3 / Fold change vs veh, AFF3 / RFU, LMF1 / Fold change vs veh, LMF1 / RFU, IPO11 / Fold change vs veh, IPO11 / RFU, DFFB / Fold change vs veh, DFFB / RFU, FOXP1 / Fold change vs veh, FOXP1 / RFU, CARD8 / Fold change vs veh, CARD8 / RFU, STRN3 / Fold change vs veh, STRN3 / RFU, ADK / Fold change vs veh, ADK / RFU, RASSF2 / Fold change vs veh, RASSF2 / RFU, WIPF1 / Fold change vs veh, WIPF1 / RFU, LARP1B / Fold change vs veh, LARP1B / RFU, RASA1 / Fold change vs veh, RASA1 / RFU, RB1 / Fold change vs veh, RB1 / RFU, PPFIA1 / Fold change vs veh, PPFIA1 / RFU, MAT2A / Fold change vs veh, MAT2A / RFU, CCT5 / Fold change vs veh, CCT5 / RFU, WDR92 / Fold change vs veh, WDR92 / RFU, CUX1 / Fold change vs veh, CUX1 / RFU, TTC7A / Fold change vs veh, TTC7A / RFU, TMEM135 / Fold change vs veh, TMEM135 / RFU, DEPTOR / Fold change vs veh, DEPTOR / RFU, CPM / Fold change vs veh, CPM / RFU, DNAJB6 / Fold change vs veh, DNAJB6 / RFU, CACNA2D3 / Fold change vs veh, CACNA2D3 / RFU, DTX4 / Fold change vs veh, DTX4 / RFU, TFCP2 / Fold change vs veh, TFCP2 / RFU, GMCL1 /// GMCL1P1 / Fold change vs veh, GMCL1 /// GMCL1P1 / RFU, AEBP2 / Fold change vs veh, AEBP2 / RFU, SNHG1 /// SNORD22 /// SNORD25 /// SNORD26 /// SNORD27 /// SNORD28 /// SNORD29 /// SNORD31 / Fold change vs veh, SNHG1 /// SNORD22 /// SNORD25 /// SNORD26 /// SNORD27 /// SNORD28 /// SNORD29 /// SNORD31 / Fold change (Aza/veh), C12orf56 (ProbeSet 11735607_a_at) / Fold change (ACY-1035/veh), C12orf56 (ProbeSet 11735607_a_at) / Fold change (Aza/veh), FGFR1OP (ProbeSet 11751329_s_at) / Fold change (ACY-1035/veh), FGFR1OP (ProbeSet 11751329_s_at) / Fold change (Aza/veh), VPS36 (ProbeSet 11739960_a_at) / Fold change (ACY-1035/veh), VPS36 (ProbeSet 11739960_a_at) / RFU SYPL1 (11715823_x_at) / Fold change /veh SYPL1 (11715823_x_at) / RFU IGFBP7 (11715501_s_at) / Fold change /veh IGFBP7 (11715501_s_at) / RFU REEP3 (11722064_at) / Fold change /veh REEP3 (11722064_at) / RFU IGLL1 (11728026_x_at) / Fold change /veh IGLL1 (11728026_x_at): dose or concentration left out as unconfirmed
Details: MV-4-11 cells, 48 hours

## Nc1ccc(-c2cccs2)cc1NC(=O)c1ccc2c(c1)cc(C1CC1)n2CCN1CCOCC1 [ACY-1035]
  RFU BIN1 (11741810_x_at): 33.72 RFU

Reference: article PMC5218480 (PLoS ONE, 2017)
